# Test results reported in patent publication US9594084B2, “Phosphorylation of histones and uses thereof” (H. LEE MOFFITT CANCER CENTER AND RESEARCH INSTITUTE, priority 2012, dated 2017).
# Legend:
# [1] = system: core histone genes located in Hist1 cluster; experiment: qRT-PCR of histone genes (8-histone gene signature) in synchronized cells; format: cell-based; details: MK1775 0.6 uM, 14 hr, 8.30 hours post-release
# Procedure: FIG. 33a-33h show a 8-histone gene signature. a-h, Synchronized cells treated with WEE1 inhibitor, MK1775 (0.6 uM, 14 hr) were harvested at indicated time points post-release. Total RNA was prepared followed by quantitative RT-PCR for 8 histone genes.
# Human cells have 55 distinct histone genes each encoding a fraction of core histones. This study determined histone levels using 20 of these genes. In untreated cells, rapid decrease in transcripts of all of these histone genes was observed when RNA levels of 6.30 hours post-release samples (late S phase) were compared with 8.30 hours post-release (G2/M phase) samples (FIGS. 33a-33h).
# Based on extensive transcriptional profiling of 20 histone genes, this study identified 8 genes (H2Bm, H2bn, H2Bl, H3 h, H4j, H2Ai, H2Ak and H2Bk) as being representative of global histone transcriptional output, termed as the 8-histone gene signature.
# [2] = system: pTyr37-H2B upstream of the Hist1 cluster; experiment: Native ChIP-qPCR with pTyr37-H2B antibody at Hist1 Site I and II in synchronized MEFs; format: cell-based, mouse; details: 6.30 hours post-release
# Procedure: FIG. 1A is a diagram illustrating the position of histone genes in mouse Hist1 subcluster 1 showing two pTyr37-H2B binding sites. Starting nucleotide position is shown above. Subclusterl is conserved between human and mouse. FIG. 1B-1D are bar graphs showing Native Chromatin immunoprecipitation (ChIP) (% input DNA) in synchronized MEFs treated with WEE1 inhibitor or untreated and harvested at 0 and 6.30 hours post-release. Native ChIP was performed using pTyr37-H2B or IgG antibodies followed by quantitative PCR using primers corresponding to Site I (FIG. 1B), Site II (FIG. 1C) and control site (FIG. 1D). Data shown are representative of three independent experiments. *p=0.001; **p=0.006. FIG. 1E is bar graph showing ChIP in synchronized MEFs harvested at 0 and 6.30 hours post-release using WEE1 or IgG antibodies followed by quantitative PCR using primers corresponding to Site II. […] FIG. 1F is bar graph showing ChIP in cells transfected with control or WEE1 siRNAs performed using pTyr37-H2B antibodies followed by quantitative PCR using primers corresponding to Site II. […]
# As a first step, extensive standardization of pTyr37-H2B antibodies were performed for its usage in ChIP. […] Pellets were resuspended and the resulting DNA was quantified on a NanoDrop spectrophotometer. Extrapolation to the original chromatin volume allowed quantitation of the total chromatin yield. […]
# IDH2 gene transcription = experiment: qRT-PCR of IDH2 in cancer cell lines; format: cell-based
# Text: (FIG. 42a-42e) RNA was isolated from cells treated with WEE1 inhibitor (or siRNA) followed by qRT-PCR using IDH2 and actin primers.
# Total RNA was isolated followed by qRT-PCR with IDH2 and actin specific primers. As control, U118 cell line was used which has low levels of WEE1 (unpublished data).
structure (smiles),measurement,setting,value
C=CCn1c(=O)c2cnc(Nc3ccc(N4CCN(C)CC4)cc3)nc2n1-c1cccc(C(C)(C)O)n1 [MK-1775],histone mRNA levels,[1],did not decrease
same,occurrence of pTyr37-H2B at site I and II,[2],significantly reduced
same,transcript levels of the IDH2 gene,"IDH2 gene transcription; LNCaP (prostate), 1 uM, 24 hours",significant increase
same,transcript levels of the IDH2 gene,"IDH2 gene transcription; U87 (GBM), 1 uM, 24 hours",significant increase
same,IDH2 mRNA,"IDH2 gene transcription; U118 cell line (low levels of WEE1), 1 uM, 24 hours",not increased
same,transcript levels of the IDH2 gene,"IDH2 gene transcription; WM1366 (melanoma), 1 uM, 24 hours",significant increase
same,IDH2 transcript levels,IDH2 gene transcription; summary statement,increased
